System: ryr1b skeletal muscles
Assay: Tetanic force per cross-sectional area in larvae at 5 dpf
Assay type: in vivo, zebrafish (Danio rerio)
Experimental: Tetanic forces were measured following stimulation with 9 biphasic, 200 μs square-wave pulses at 300 Hz (WT-DMSO: 45.6±4.2 kPa, n=5; WT-NIF: 52.8±4.1 kPa, n=5; ryr1b-DMSO: 11.4±1.3 kPa, n=7; ryr1b-NIF: 25.4±4.0 kPa, n=7). Significance was determined by a one-way ANOVA (F=29.61, P<0.0001), followed by pairwise Tukey's HSD post hoc tests. […] Non-linear regression data of curves were not statistically different, as determined by an extra sum-of-squares F test (P=1.0).
Ryr1b mutants display weaker muscle contractions than wild-type clutchmates as early as 2 dpf^30. To investigate whether […] affects contractile strength in zebrafish, ryr1b mutants and unaffected controls were treated with the compound for several days. At 5 dpf, electrophysiological studies were performed with the help of Dr. Jeffrey Widrick.

How did the “tetanic forces in treated mutants” value turn out when `O=C(N/N=C/c1ccc([N+](=O)[O-])o1)c1ccc(O)cc1` [Nifuroxazide] was run?
Its value is “restored to wild-type levels”.

What about the “tetanic force per cross-sectional area, ryr1b mutants” value (ryr1b, n=7, 9 biphasic 200 μs pulses at 300 Hz, ryr1b-DMSO 11.4±1.3, WT-DMSO 45.6±4.2) of the same compound?
The value was 25.4±4.0 kPa.
